Each compound was assayed on Plasmodium falciparum (assay: GSK_TCMDC: Inhibition of Plasmodium falciparum 3D7 in whole erythrocytes, using parasite LDH activity as an index of growth.). Settings: Plasmodium falciparum, 3D7.
Format: functional, organism-based
Work on `CCOc1ccc2nc(C)cc(N/N=C/c3ccccc3[N+](=O)[O-])c2c1` yielded an XC50 of 29.6 nM. `Cc1cccc(C)c1C1CCN(C2CCC(NC(=O)/C=C/c3ccccc3)CC2)CC1` (stereo not given) gave an XC50 of 581 nM. In the case of `CC(C)C1=CC(=NOS(=O)(=O)c2ccccc2)C=C(C(C)C)C1=O`, the XC50 was 712 nM. With `O=c1cc(NCCC2CC=CCN2Cc2ccc(Cl)c(Cl)c2)[nH]c2ccccc12` (stereo not given) the XC50 was 1730 nM. `NCC1CCCN1Cc1cccc(-c2ccc(-c3nc4cc(C(F)(F)F)ccc4[nH]3)s2)c1` (stereo not given) showed an XC50 of 748 nM. `COc1ccc2c(=NN=Cc3ccc(F)cc3)cc(C)[nH]c2c1` showed an XC50 of 773 nM. In the case of `COC(=O)c1ccc(CC(C)NCC(O)c2cccc(Oc3cccc(C(F)(F)F)c3)c2)cc1` (stereo not given), the XC50 was 1170 nM. `CN1CCCC(CN2CCN(Cc3ccc(-c4ccc(-c5nc6ccccc6[nH]5)s4)cc3)CC2)C1` (stereo not given) showed an XC50 of 133 nM. For `Cc1cc(N[C@@H](Cc2ccccc2)C(=O)NCc2cccs2)nc(NCCc2cccnc2)n1`, the XC50 was 1010 nM. Work on `FC(F)(F)c1ccc(Nc2nnnc3ccccc23)cc1` yielded an XC50 of 692 nM. `CCCCN(CCCC)Cc1cc2ccccc2cc1O` gave an XC50 of 348 nM. With `CC(NC(=O)NC1CCC(CCN2CCCc3ccccc32)CC1)c1cccc2ccccc12` (stereo not given) the XC50 was 1020 nM. `COc1cc(C=NNc2ccnc3cc(Cl)ccc23)ccc1O` showed an XC50 of 134 nM. `OCc1ccc(-c2cncc(Nc3ccc(F)c(Cl)c3)c2)cc1` showed an XC50 of 88.5 nM. In the case of `COc1ccc2cc(CNCCCCCCNCc3ccc4cc(OC)ccc4c3)ccc2c1`, the XC50 was 624 nM. Compound `O=C(NCC1CCN(Cc2cccc(F)c2)C1)c1cc(-c2cccc(C(F)(F)F)c2)cs1` (stereo not given) has an XC50 of 992 nM. `COc1ccc(C=NN=c2cc[nH]c3ccccc23)c2ccccc12` showed an XC50 of 696 nM. For `Cc1ccccc1C1CCN(c2ccc(NC(=O)c3ccc(Cl)nc3)cc2)CC1`, the XC50 was 1030 nM. Compound `N#Cc1ccc(NC(=O)c2ccc(C(=O)NCCCCN3CCC(c4ccc5c(c4OCCOC4CCCCO4)CCCC5)CC3)cc2)cc1` (stereo not given) has an XC50 of 580 nM. Work on `CC(C)(C)C1CCc2nc(N)nc(N)c2C1` (stereo not given) yielded an XC50 of 12.6 nM. With `O=C(CC1CCCCC1)NCC(NCCCNc1cc(=O)c2ccccc2[nH]1)c1cc(Br)cc(Br)c1` (stereo not given) the XC50 was 1050 nM. `Cc1cccc(CN2CCC(Oc3ccc(NC(=O)c4cccs4)cc3Cl)CC2)n1` showed an XC50 of 844 nM. `CN1C(=O)OC[C@@H]1Cc1ccc2[nH]cc(C3=CCN(Cc4ccccc4)CC3)c2c1` gave an XC50 of 417 nM. Compound `CN(C)CCNC(=O)N1CCCN(c2ncnc3cc(-c4ccccc4)sc23)CC1` has an XC50 of 786 nM. `Cc1cc2nc(-c3ccc(C(=O)NCCCc4ccccc4)cc3)[nH]c2cc1C` was tested, and the XC50 was 1180 nM. In the case of `CN(Cc1cccc(F)c1)C1CCN(c2cc(NC(=O)c3ccc(F)cc3)ccn2)C1` (stereo not given), the XC50 was 1230 nM. For `CCCCC1=CC2C(=O)C(C(=O)OC)=CN=C2C=C1OCc1ccccc1` (stereo not given), the XC50 was 42.2 nM. With `Cn1cncc1C(=O)Nc1ccc(-c2ccc(-c3nc4cc(C(F)(F)F)ccc4[nH]3)cc2)cc1` the XC50 was 560 nM. Compound `COc1cc(C2Nc3ccc4ccccc4c3C3=C2C(=O)CC(C)(C)C3)ccc1Oc1ccc([N+](=O)[O-])cc1C#N` (stereo not given) has an XC50 of 662 nM. For `CCCOc1cc2c(cc1OCCC)C(C=Cc1ccc(Cl)cc1Cl)=NC(C)C2` (stereo not given), the XC50 was 370 nM. `O=C(CCc1c[nH]cn1)Nc1ccc(-c2ccc(-c3nc4ccccc4[nH]3)cc2)cc1` gave an XC50 of 705 nM. In the case of `CCc1cn2c3c(cc(C(=O)N[C@@H](Cc4ccccc4)[C@H](O)CNCc4cccc(C)c4)cc13)N(C)S(=O)(=O)CC2`, the XC50 was 246 nM. With `CCCc1ccc(S(=O)(=O)NC2CCN(c3ccnc(Nc4ccc(F)cc4)n3)C2)cc1` (stereo not given) the XC50 was 1010 nM. Compound `Cc1cccn2c(=O)c3cc(C(=O)NC(C)c4ccccc4)c(=N)n(CCc4ccccc4)c3nc12` (stereo not given) has an XC50 of 554 nM. `Oc1cccc(Nc2nc(NCc3ccccc3)c3ccccc3n2)c1` gave an XC50 of 41.3 nM. For `OC(CNC1CCCCCCC1)c1ccc(Cl)c(Cl)c1` (stereo not given), the XC50 was 205 nM. With `O=C(CN1CCN(C(C(=O)Nc2cc(C(F)(F)F)ccc2Cl)c2ccccc2)CC1)NC1CC1` (stereo not given) the XC50 was 443 nM. `COc1ccc(CN(C)Cc2cc(C(C)C)c(C)cc2O)cc1F` was tested, and the XC50 was 654 nM. Work on `O=C(Nc1ccccc1Cl)N(Cc1cc(Cl)cc(Cl)c1)CC(O)COc1ccc(Cl)c(F)c1` (stereo not given) yielded an XC50 of 788 nM. With `COc1cccc2c(O)c(CNC3CCCCC3)ccc12` the XC50 was 630 nM. `N#Cc1ccc(-c2ccc(C(=O)NCCCCN3CCC(c4ccc5c(c4OCC(N)=O)CCCC5)CC3)cc2)cc1` was tested, and the XC50 was 984 nM. With `COc1ccc(N2CCN(CCCCNCc3ccc(NC(=O)c4cc(Cl)cc(Cl)c4)cc3)CC2)c(OC)c1` the XC50 was 253 nM. `Fc1ccc2[nH]c(-c3cccc(-c4ccc(CNCCc5ccncc5)cc4)c3)nc2c1` gave an XC50 of 115 nM. With `CCOc1ccc(-c2nonc2NC(=O)c2ccccc2)cc1OCC` the XC50 was 257 nM. `Oc1ccc(CCNCCCCCCNCCc2ccc(Br)cc2)cc1O` gave an XC50 of 1020 nM. `CCN(CC)CCCC(C)Nc1c2ccc(Cl)cc2nc2ccc(OC)cc12` (stereo not given) gave an XC50 of 44.1 nM. `CCN1CCC(NCc2ccc(-c3ccc(Cl)s3)cc2)CC1` was tested, and the XC50 was 939 nM. `Cc1n[nH]c2ccc(-c3cc(OC[C@@H](N)Cc4ccccc4)cnc3-c3ccccc3OCc3cccc(F)c3)cc12` gave an XC50 of 1220 nM. `c1ccc(Oc2ccc(Nc3ccnc(Nc4ccc(OCCN5CCCCC5)cc4)n3)cc2)cc1` was tested, and the XC50 was 604 nM. Compound `OC1CCCN(Cc2ccc(-c3ccc(-c4nc5ccccc5[nH]4)cc3)cc2)C1` (stereo not given) has an XC50 of 838 nM. In the case of `O=C(Nc1cc(C(F)(F)F)ccc1N1CCOCC1)C(Cl)(Cl)Cl`, the XC50 was 373 nM. Work on `O=C(Cc1c[nH]cn1)Nc1cccc(-c2ccc(-c3nc4cc(C(F)(F)F)ccc4[nH]3)cc2)c1` yielded an XC50 of 700 nM. Compound `Cc1ccc(-c2cc(C(=O)Nc3ccc(S(=O)(=O)N4CCCCC4C)cc3)n[nH]2)c(O)c1` (stereo not given) has an XC50 of 1080 nM. In the case of `CN1CCN(Cc2cccc(-c3ccc4c(Nc5ccc(Oc6ccccc6)cc5)ccnc4c3)c2)CC1`, the XC50 was 226 nM. For `CCOc1cc(C)ccc1C1CCN(CCCCNC(=O)c2cnc(-c3ccc(C(F)(F)F)cc3)[nH]2)CC1`, the XC50 was 771 nM. With `O=C(/C=C/c1ccc(Cl)cc1)NCCCCCN1CCCN(C(=O)Nc2ccc(Cl)c(C(F)(F)F)c2)CC1` the XC50 was 910 nM. Work on `Cc1cc2c(cc1C(F)(F)F)N(C(=O)Nc1cc(C(=O)NC3CCN(Cc4ccccc4)C3)cc(C(F)(F)F)c1)CC2` (stereo not given) yielded an XC50 of 339 nM. In the case of `O=C(Cc1ccccn1)Nc1cccc(-c2cccc(-c3nc4cc(C(F)(F)F)ccc4[nH]3)c2)c1`, the XC50 was 610 nM. For `C=CCOC(=O)N1CCC(CNCc2ccc(-c3ccc(-c4nc5ccccc5[nH]4)s3)cc2)C1` (stereo not given), the XC50 was 229 nM. Work on `CCOC(=O)CCCc1cc(NC2CCN(C)CC2)nc(Nc2ccc(OC)cc2)n1` yielded an XC50 of 704 nM. For `CC(C)c1ccc(CN2CCCCC(NC(=O)c3cc(-c4ccccc4F)cs3)C2)cc1` (stereo not given), the XC50 was 672 nM. Work on `COc1cccc(CCc2cccc(CNC(C)=O)c2)c1` yielded an XC50 of 1040 nM. `N#Cc1ccc(N/C(=N\c2ccc(-c3ccccc3)cc2)NC2CCCc3ccccc32)c(O)c1` (stereo not given) was tested, and the XC50 was 776 nM. Work on `Cc1cc(=NN=Cc2cccc(Cl)c2)c2cc(F)ccc2[nH]1` yielded an XC50 of 759 nM. Work on `COc1ccc(C(=O)C2CC2CN(C)CCC(O)c2ccc(Cl)c(Cl)c2)cc1` (stereo not given) yielded an XC50 of 873 nM. With `CN(c1ccccc1)S(=O)(=O)c1cccc(NC(=O)c2ccc(-n3ccnc3)c([N+](=O)[O-])c2)c1` the XC50 was 1130 nM. `Cc1ccc(CN2CCN(Cc3cccc(NC(=O)c4cccs4)c3)CC2)cc1C` showed an XC50 of 1030 nM. With `Cc1cc(N[C@@H](Cc2ccccc2)C(=O)NCc2cccc(F)c2)nc(NCCCOC(C)C)n1` the XC50 was 920 nM. `N#Cc1ccc2c(c1)CN(CCCCNC(=O)c1ccc(-c3ccccc3)cc1)CC2` gave an XC50 of 894 nM. Work on `C=C(C)Cn1cc(C2CCN(CCCCNC(=O)c3sc(-c4ccc(Cl)cc4Cl)nc3CO)CC2)c2ccccc21` yielded an XC50 of 1150 nM. `CN(C)CCOc1cc(NC(=O)Nc2ccc(Oc3ccccc3)cc2)ccc1I` showed an XC50 of 890 nM. `CC(C)C(=O)NC(c1ccc(Cl)cc1)c1ccc2cccnc2c1O` (stereo not given) gave an XC50 of 873 nM. `CCOc1ccc2[nH]c(C)cc(=NN=Cc3ccccc3)c2c1` showed an XC50 of 785 nM. In the case of `CC(Oc1c(C2CCN(CCCCNC(=O)c3ccc(-c4ccc(Cl)cc4)cc3)CC2)ccc2c1CCCC2)C(N)=O` (stereo not given), the XC50 was 948 nM. Work on `O=C(/C=C/c1ccc(Cl)c(Cl)c1)NCCCCCN1CCCC(CNS(=O)(=O)c2cccc(C(F)(F)F)c2)C1` (stereo not given) yielded an XC50 of 950 nM. Compound `CC(=O)N(Cc1cccc(-c2ccc(CNCCc3ccccc3)cc2)c1)C1CCN(Cc2ccccc2)CC1` has an XC50 of 691 nM. For `COc1ccc(-c2nc(NC(=O)CS(=O)(=O)c3ccc(OC)cc3)sc2C)cc1`, the XC50 was 302 nM. With `COc1ccc(NC(=O)[C@H](CC(C)C)Nc2cc(C)nc(NCCc3ccccc3OC)n2)cc1` the XC50 was 988 nM. In the case of `COc1ccc(CCNCCCCCCNCCc2ccc(Cl)c(Cl)c2)cc1OC`, the XC50 was 926 nM. In the case of `N#CN1CC[C@@H](NS(=O)(=O)Cc2ccc(Cl)c(Cl)c2)C1`, the XC50 was 532 nM. In the case of `CCOc1cc2ncnc(Nc3ccc(OCc4ccccc4Br)c(OC)c3)c2cc1OCC`, the XC50 was 467 nM. For `CNCc1ccc2nc(-c3coc(Cc4cc(Cl)ccc4OCC(C)C)n3)[nH]c2c1`, the XC50 was 838 nM. Work on `Nc1c2c(nc3ccc(NC(=O)CCCc4ccccc4)cc13)CCCC2` yielded an XC50 of 429 nM. `COc1ccc(C(=O)N2CCC(CN3CCOC(c4ccccc4)(c4ccccc4)C3)CC2)cc1` gave an XC50 of 171 nM. Work on `CCCCCCCN1CC[C@@H](CCCc2ccnc3ccc(OC)cc23)[C@@H](CCN)C1` yielded an XC50 of 748 nM. With `COc1ccc(CCNCCCCCCNCCCc2ccc(Cl)cc2)cc1OC` the XC50 was 951 nM. With `CC(C)C[C@@H](/C=N/N1CCNC1=O)NC(=O)[C@H](CC(C)C)NC(=O)c1ccc(OCCN2CCOCC2)cc1` the XC50 was 190 nM. In the case of `Cc1cc(NCCC(=O)Nc2ccccc2)nc(NCCc2ccc(F)cc2)n1`, the XC50 was 1130 nM. Work on `N#Cc1c(-c2ccccc2)cn2c1[nH]c(=O)c1ccccc12` yielded an XC50 of 109 nM. Compound `O=[N+]([O-])c1cccc(NC(=S)N2CCCN(Cc3ccc(Cl)cc3Cl)CC2)c1` has an XC50 of 925 nM. Work on `CC[C@H](C)CNC(=O)c1cccc(-c2cccc(CNCC3CNCCCO3)c2)n1` (stereo not given in full) yielded an XC50 of 1080 nM. `O=[N+]([O-])c1cccc(-n2nc(NCc3ccc(Cl)cc3)nc2-c2ccc(F)c(C(F)(F)F)c2)c1` gave an XC50 of 243 nM. Work on `COc1cc(NC(=O)Nc2ccc(Br)cc2C(=O)Nc2ccc(Br)cc2)cc(OC)c1OC` yielded an XC50 of 761 nM. With `Cc1cc(C(=O)NC2CCN(CC3(c4ccccc4)CCCCC3)CC2)on1` the XC50 was 258 nM. `Cc1nc(-c2nc(NCCc3cnccn3)ncc2-c2ccsc2)sc1C` showed an XC50 of 881 nM. Work on `N#CC(c1ccc(Cl)cc1)c1ccc2c(C(F)(F)F)cc(C(F)(F)F)nc2n1` (stereo not given) yielded an XC50 of 1010 nM. In the case of `Cc1cc2c(NC(=O)NC3CCN(CCc4ccccc4Cl)CC3)cccc2cn1`, the XC50 was 387 nM. `Cc1[nH]c(C)c(-c2ccc(-c3ccc(C#N)cc3)nc2)c(=O)c1Br` showed an XC50 of 981 nM. In the case of `CC(C)(C)c1ccc(CN2CCCCC(NC(=O)c3cc(-c4ccccc4F)cs3)C2)cc1` (stereo not given), the XC50 was 267 nM. `O=C(CC(=O)Nc1cc(Cl)cc(Cl)c1)Nc1cc(Cl)cc(Cl)c1` showed an XC50 of 159 nM.
